# Measured values published in patent US7495027B2, “3-aryl-4-hydroxyfuranone compounds and the human and animal health use thereof” (Wyeth, priority 2003, dated 2009).
# Target: T1, S. aureus Uridine-diphosphate-N-acetylmuramoyl-L-alanine: D-glutamate liease, MurD (Staphylococcus aureus, UniProt Q2FZ92)
# T1 sequence (Q2FZ92 1-449): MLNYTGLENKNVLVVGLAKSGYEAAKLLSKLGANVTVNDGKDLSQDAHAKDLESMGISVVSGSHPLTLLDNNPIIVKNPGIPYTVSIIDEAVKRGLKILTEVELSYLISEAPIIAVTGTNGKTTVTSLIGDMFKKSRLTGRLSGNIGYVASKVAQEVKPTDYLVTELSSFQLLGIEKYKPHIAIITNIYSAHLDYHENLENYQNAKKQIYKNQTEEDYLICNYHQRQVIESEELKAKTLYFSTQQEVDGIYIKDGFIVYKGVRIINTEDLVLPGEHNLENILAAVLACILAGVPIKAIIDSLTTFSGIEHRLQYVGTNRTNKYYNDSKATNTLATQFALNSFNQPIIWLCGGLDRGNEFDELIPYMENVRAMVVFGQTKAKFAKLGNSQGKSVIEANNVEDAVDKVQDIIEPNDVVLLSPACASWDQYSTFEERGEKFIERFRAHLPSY
# Test: biochemical
# Details: (S) S. aureus enzyme
# How it was run: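 MurD, which catalyses the fourth step of cell wall biosynthesis, was tested for inhibition by compounds. Compounds were made up as 10 mg/mL DMSO stocks and diluted to 100 μg/mL in 50 mM Tris/HCl, pH 8.5.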
Compound,MurD IC50,IC50 [µM]
O=C1O/C(=C\c2ccc(-c3cccc(C(F)(F)F)c3)cc2)C(O)=C1c1cccc(C(F)(F)F)c1,15 µg/mL,–
O=C1O/C(=C\c2ccc(-c3cc(Cl)cc(Cl)c3)cc2)C(O)=C1c1cc(Cl)cc(Cl)c1,–,> 52.3
O=C1OC(=Cc2ccc(-c3ccccc3)cc2)C(O)=C1c1cccc(C(F)(F)F)c1 (mixture of isomers) [Example 11],11 µg/mL,–
Cc1ccc(C=C2OC(=O)C(c3ccc(Cl)cc3)=C2O)s1 (mixture of isomers) [Example 13],20 µg/mL,–
O=C1O/C(=C\c2ccc(-c3ccccc3)cc2)C(O)=C1c1cccc(C(F)(F)F)c1 [Example 10],–,31.8
Cc1ccc(C=C2OC(=O)C(c3ccc(Cl)cc3)=C2O)s1 [Example 14],>25 (E); >25 (S) μg/mL,–
O=C1O/C(=C\C2CCCCC2)C(O)=C1c1ccc(Cl)cc1 [Example 15],–,> 82
O=C1OC(=CC2CCCCC2)C(O)=C1c1cccc(C(F)(F)F)c1 [Example 16],>25 (E); >25 (S) μg/mL,–
O=C1O/C(=C\C2CCCCC2)C(O)=C1c1cccc(C(F)(F)F)c1 [Example 17],–,> 73.9
O=C1O/C(=C\c2cccc(C(F)(F)F)c2)C(O)=C1c1ccc2ccccc2c1 [Example 42],–,> 65.4
O=C1O/C(=C\c2ccc(Cl)cc2)C(O)=C1c1ccc2ccccc2c1 [Example 43],–,> 71.7
O=C1O/C(=C\c2cccc3ccccc23)C(O)=C1c1cccc2ccccc12 [Example 47],–,> 68.6

# Tested on: enterococci
# Test: Minimum inhibitory concentration, microdilution broth method, enterococci
# Format: cell-based
# Details: E. faecalis GC 2242; Mueller-Hinton broth, 18-22 hours at 35° C.
# How it was run: (§1)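 Following NCCLS standard M7-A5, MICs were determined by microdilution in Mueller-Hinton broth, with 5% horse blood added for streptococci.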
row,Compound,MIC E. faecalis GC 2242 [µg/mL]
1,O=C1O/C(=C\c2ccc(-c3cccc(C(F)(F)F)c3)cc2)C(O)=C1c1cccc(C(F)(F)F)c1,1
2,O=C1OC(=Cc2ccc(-c3ccccc3)cc2)C(O)=C1c1cccc(C(F)(F)F)c1 (mixture of isomers) [Example 11],1
3,Cc1ccc(C=C2OC(=O)C(c3ccc(Cl)cc3)=C2O)s1 (mixture of isomers) [Example 13],>128
4,Cc1ccc(C=C2OC(=O)C(c3ccc(Cl)cc3)=C2O)s1 [Example 14],64
5,O=C1OC(=CC2CCCCC2)C(O)=C1c1cccc(C(F)(F)F)c1 [Example 16],64

# Same assay, conditions: E. faecalis GC 4555; Mueller-Hinton broth, 18-22 hours at 35° C.
row,Compound,MIC E. faecalis GC 4555 [µg/mL]
1,O=C1O/C(=C\c2ccc(-c3cccc(C(F)(F)F)c3)cc2)C(O)=C1c1cccc(C(F)(F)F)c1,4
2,O=C1OC(=Cc2ccc(-c3ccccc3)cc2)C(O)=C1c1cccc(C(F)(F)F)c1 (mixture of isomers) [Example 11],8
3,Cc1ccc(C=C2OC(=O)C(c3ccc(Cl)cc3)=C2O)s1 (mixture of isomers) [Example 13],>128
4,Cc1ccc(C=C2OC(=O)C(c3ccc(Cl)cc3)=C2O)s1 [Example 14],4
5,O=C1OC(=CC2CCCCC2)C(O)=C1c1cccc(C(F)(F)F)c1 [Example 16],64

# Same assay, conditions: Enterococcus faecalis, E. faecalis GC 2242; Mueller-Hinton broth, 18-22 hours at 35° C.; read-out: MIC E. faecalis GC 2242
row,Compound,MIC [µg/mL]
1,O=C1O/C(=C\c2ccc(-c3cc(Cl)cc(Cl)c3)cc2)C(O)=C1c1cc(Cl)cc(Cl)c1,0.5
2,O=C1O/C(=C\c2ccc(-c3ccccc3)cc2)C(O)=C1c1cccc(C(F)(F)F)c1 [Example 10],1
3,O=C1O/C(=C\C2CCCCC2)C(O)=C1c1ccc(Cl)cc1 [Example 15],32
4,O=C1O/C(=C\C2CCCCC2)C(O)=C1c1cccc(C(F)(F)F)c1 [Example 17],32
5,O=C1O/C(=C\c2cccc(C(F)(F)F)c2)C(O)=C1c1ccc2ccccc2c1 [Example 42],8
6,O=C1O/C(=C\c2ccc(Cl)cc2)C(O)=C1c1ccc2ccccc2c1 [Example 43],4
7,O=C1O/C(=C\c2cccc3ccccc23)C(O)=C1c1cccc2ccccc12 [Example 47],32

# Same assay, conditions: Enterococcus faecalis, E. faecalis GC 4555; Mueller-Hinton broth, 18-22 hours at 35° C.; read-out: MIC E. faecalis GC 4555
row,Compound,MIC [µg/mL]
1,O=C1O/C(=C\c2ccc(-c3cc(Cl)cc(Cl)c3)cc2)C(O)=C1c1cc(Cl)cc(Cl)c1,1
2,O=C1O/C(=C\c2ccc(-c3ccccc3)cc2)C(O)=C1c1cccc(C(F)(F)F)c1 [Example 10],8
3,O=C1O/C(=C\C2CCCCC2)C(O)=C1c1ccc(Cl)cc1 [Example 15],64
4,O=C1O/C(=C\C2CCCCC2)C(O)=C1c1cccc(C(F)(F)F)c1 [Example 17],64
5,O=C1O/C(=C\c2cccc(C(F)(F)F)c2)C(O)=C1c1ccc2ccccc2c1 [Example 42],32
6,O=C1O/C(=C\c2ccc(Cl)cc2)C(O)=C1c1ccc2ccccc2c1 [Example 43],16
7,O=C1O/C(=C\c2cccc3ccccc23)C(O)=C1c1cccc2ccccc12 [Example 47],64

# Target: E. coli UDP-N-acetylglucosamine enolpyruvoyl transferase, MurA (Escherichia coli, UniProt P0A749)
# Sequence (P0A749 whole entry): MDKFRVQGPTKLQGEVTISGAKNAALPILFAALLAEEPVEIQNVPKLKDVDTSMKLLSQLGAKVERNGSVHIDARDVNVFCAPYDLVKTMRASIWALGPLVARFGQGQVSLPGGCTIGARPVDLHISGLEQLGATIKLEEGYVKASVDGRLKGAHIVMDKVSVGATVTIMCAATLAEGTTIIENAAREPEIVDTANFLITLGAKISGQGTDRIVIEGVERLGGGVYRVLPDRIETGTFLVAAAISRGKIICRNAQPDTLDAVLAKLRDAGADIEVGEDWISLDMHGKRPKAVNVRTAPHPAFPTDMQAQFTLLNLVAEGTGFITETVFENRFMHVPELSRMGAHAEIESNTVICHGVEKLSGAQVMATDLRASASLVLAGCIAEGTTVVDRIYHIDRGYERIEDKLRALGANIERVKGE
# Test: biochemical
# Details: (E) E. coli enzyme
# How it was run: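 Compound in DMSO/water pre-incubated 10 min at 37° C with enzyme in 50 mM Tris/HCl pH 8.0, 5 mM DTT, 20% glycerol. After Tris/BME and assay buffer were added, OD340 was read at start. Reaction ran 1 hr at 37° C, then stop solution was added with 30 min colour development.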
Compound,MurA IC50,IC50 [µM]
O=C1O/C(=C\c2ccc(-c3cccc(C(F)(F)F)c3)cc2)C(O)=C1c1cccc(C(F)(F)F)c1,>25 (E) μg/mL,–
O=C1O/C(=C\c2ccc(-c3cc(Cl)cc(Cl)c3)cc2)C(O)=C1c1cc(Cl)cc(Cl)c1,1 (E) μg/mL,–
O=C1OC(=Cc2ccc(-c3ccccc3)cc2)C(O)=C1c1cccc(C(F)(F)F)c1 (mixture of isomers) [Example 11],1 (E) μg/mL,–
Cc1ccc(C=C2OC(=O)C(c3ccc(Cl)cc3)=C2O)s1 (mixture of isomers) [Example 13],0.5 (E) μg/mL,–
O=C1O/C(=C\c2ccc(-c3ccccc3)cc2)C(O)=C1c1cccc(C(F)(F)F)c1 [Example 10],–,2.45
Cc1ccc(C=C2OC(=O)C(c3ccc(Cl)cc3)=C2O)s1 [Example 14],5 (E) μg/mL,–
O=C1O/C(=C\C2CCCCC2)C(O)=C1c1ccc(Cl)cc1 [Example 15],–,> 82
O=C1OC(=CC2CCCCC2)C(O)=C1c1cccc(C(F)(F)F)c1 [Example 16],>25 (E) μg/mL,–
O=C1O/C(=C\c2cccc(C(F)(F)F)c2)C(O)=C1c1ccc2ccccc2c1 [Example 42],20 (E) μg/mL,–
O=C1O/C(=C\c2ccc(Cl)cc2)C(O)=C1c1ccc2ccccc2c1 [Example 43],–,57.3
O=C1O/C(=C\c2cccc3ccccc23)C(O)=C1c1cccc2ccccc12 [Example 47],–,> 68.6

# Tested on: staphylococci
# Test: Minimum inhibitory concentration, microdilution broth method, staphylococci
# Format: cell-based
# Details: S. aureus GC 1131; Mueller-Hinton broth, 18-22 hours at 35° C.
# How it was run: as §1
row,Compound,MIC S. aureus GC 1131 [µg/mL]
1,O=C1O/C(=C\c2ccc(-c3cccc(C(F)(F)F)c3)cc2)C(O)=C1c1cccc(C(F)(F)F)c1,4
2,O=C1OC(=Cc2ccc(-c3ccccc3)cc2)C(O)=C1c1cccc(C(F)(F)F)c1 (mixture of isomers) [Example 11],4
3,Cc1ccc(C=C2OC(=O)C(c3ccc(Cl)cc3)=C2O)s1 (mixture of isomers) [Example 13],64
4,Cc1ccc(C=C2OC(=O)C(c3ccc(Cl)cc3)=C2O)s1 [Example 14],>128
5,O=C1OC(=CC2CCCCC2)C(O)=C1c1cccc(C(F)(F)F)c1 [Example 16],64

# Same assay, conditions: S. aureus GC 4543; Mueller-Hinton broth, 18-22 hours at 35° C.
row,Compound,MIC S. aureus GC 4543 [µg/mL]
1,O=C1O/C(=C\c2ccc(-c3cccc(C(F)(F)F)c3)cc2)C(O)=C1c1cccc(C(F)(F)F)c1,1
2,O=C1OC(=Cc2ccc(-c3ccccc3)cc2)C(O)=C1c1cccc(C(F)(F)F)c1 (mixture of isomers) [Example 11],2
3,Cc1ccc(C=C2OC(=O)C(c3ccc(Cl)cc3)=C2O)s1 (mixture of isomers) [Example 13],>128
4,Cc1ccc(C=C2OC(=O)C(c3ccc(Cl)cc3)=C2O)s1 [Example 14],>128
5,O=C1OC(=CC2CCCCC2)C(O)=C1c1cccc(C(F)(F)F)c1 [Example 16],>128

# Same assay, conditions: Staphylococcus aureus, S. aureus GC 1131; Mueller-Hinton broth, 18-22 hours at 35° C.; read-out: MIC S. aureus GC 1131
row,Compound,MIC [µg/mL]
1,O=C1O/C(=C\c2ccc(-c3cc(Cl)cc(Cl)c3)cc2)C(O)=C1c1cc(Cl)cc(Cl)c1,4
2,O=C1O/C(=C\c2ccc(-c3ccccc3)cc2)C(O)=C1c1cccc(C(F)(F)F)c1 [Example 10],4
3,O=C1O/C(=C\C2CCCCC2)C(O)=C1c1ccc(Cl)cc1 [Example 15],64
4,O=C1O/C(=C\C2CCCCC2)C(O)=C1c1cccc(C(F)(F)F)c1 [Example 17],32
5,O=C1O/C(=C\c2cccc(C(F)(F)F)c2)C(O)=C1c1ccc2ccccc2c1 [Example 42],8
6,O=C1O/C(=C\c2ccc(Cl)cc2)C(O)=C1c1ccc2ccccc2c1 [Example 43],8
7,O=C1O/C(=C\c2cccc3ccccc23)C(O)=C1c1cccc2ccccc12 [Example 47],16

# Same assay, conditions: Staphylococcus aureus, S. aureus GC 4543; Mueller-Hinton broth, 18-22 hours at 35° C.; read-out: MIC S. aureus GC 4543
row,Compound,MIC [µg/mL]
1,O=C1O/C(=C\c2ccc(-c3cc(Cl)cc(Cl)c3)cc2)C(O)=C1c1cc(Cl)cc(Cl)c1,0.5
2,O=C1O/C(=C\c2ccc(-c3ccccc3)cc2)C(O)=C1c1cccc(C(F)(F)F)c1 [Example 10],2
3,O=C1O/C(=C\C2CCCCC2)C(O)=C1c1ccc(Cl)cc1 [Example 15],64
4,O=C1O/C(=C\C2CCCCC2)C(O)=C1c1cccc(C(F)(F)F)c1 [Example 17],> 128
5,O=C1O/C(=C\c2cccc(C(F)(F)F)c2)C(O)=C1c1ccc2ccccc2c1 [Example 42],8
6,O=C1O/C(=C\c2ccc(Cl)cc2)C(O)=C1c1ccc2ccccc2c1 [Example 43],8
7,O=C1O/C(=C\c2cccc3ccccc23)C(O)=C1c1cccc2ccccc12 [Example 47],32
